Tests used:
[1] = tested on: 60 different human tumor cell lines; conditions: for cytotoxicity: cancer cell lines
Procedure: In these examples, an extract of Lyngbya majuscula containing Curacins A and B was subjected to the drug screening procedure employed by the National Cancer Institute for the screening of drugs having possible anticancer utility.
The screening procedure employed a diverse, disease-oriented panel consisting of 60 different human tumor cell lines organized into seven disease-specific subpanels. The extract was tested over a wide range of concentrations for cytotoxic or growth-inhibitory effects against each cell line comprising the panel. The seven subpanels represented diverse histologies (leukemias, melanomas, and tumors of the lung, colon, kidney, ovary, and brain).
The extract was tested over two days in which the cells were continuously exposed to five log10 -spaced concentrations of the drug starting at 10^-4 μg/mL. The tests produced 60 individual dose-response curves, one for each cell line (i.e., one for each example).
To produce data for the mean-graph format shown in FIG. 7, a concentration of the extract that produced a target level response was calculated for each cell line. Three different response parameters were evaluated. The first response parameter was the "GI50," which is the concentration of the extract that produced an apparent 50% decrease in the number of tumor cells relative to the appropriate control (not exposed to extract) at the end of the incubation period. The second response parameter was the "TGI," which is the concentration at which the number of tumor cells remaining at the end of the incubation period substantially equaled the number of tumor cells existing at the start of the incubation period. The third response parameter was the "LC50," which is the concentration of extract that caused an apparent 50 percent reduction in the number of tumor cells relative to the appropriate control (not exposed to extract) at the start of the incubation period.
In a typical GI50 mean graph (e.g., left graph of FIG. 7), the relative position of the vertical reference line along the horizontal concentration axis is obtained by averaging the negative log10 GI50 values for all the cell lines tested against the extract. Horizontal bars are then plotted for the individual negative log10 GI50 values of each cell line relative to the vertical reference line. […] The length of a bar is proportional to the difference between the log10 GI50 value obtained with the particular cell line and the mean (represented by the vertical reference line).
COMPARE is used to rank the similarity of the mean graph profile of the sample extract or drug to the patterns of all the other compounds in the NCI screening database or a defined subset thereof.

proliferating cells = assay: administration of formulations containing Curacins A and B to mice (data not shown); format: in vivo; conditions: various direct methods and oral
Source text: In addition, these tests indicate that Curacins A and B can be administered to animal subjects using dosage protocols that are substantially similar to such protocols used with other antimitotics.

spleen lymphocytes = assay: ex vivo experiments on spleen lymphocytes after administration to mice; conditions: 1-10 mg/kg
MRC-5 cells = assay: cytotoxicity / antiproliferative assay on dividing and confluent MRC-5 cells (MTT); format: cell-based, human; conditions: proliferating vs quiescent cells
Procedure: Evaluation of the antiproliferative activity of fractions using MRC-5 cells in culture was performed using the following procedure: Human embryonic lung (MRC-5) cells were obtained from the American Type Culture Collection. The cells were grown in Eagle's Minimum Essential Medium with Earle's salts (EMEM, JRH Bioscience) supplemented with 10% fetal calf serum (Hyclone), 0.75 mg/mL NaHCO3, 100 units of penicillin per mL, and 100 μg streptomycin per mL (Gibco Labs). As in the AB1 cell assay, cell growth and survival was determined calorimetrically, based upon the uptake and reduction of the tetrazolium salt, MTT, to a blue-colored formazan product by mitochondrial enzymes of living cells. The effect of the fractions, as potential inhibitors at different stages of the cell cycle, was determined by performing the assay using both resting and rapidly dividing cells. […] At the end of the incubation, the medium was aspirated, the cells were rinsed once using PBS, and 1.0 mg/mL of MTT was added to each well. The plates were incubated with MTT for three hours, after which the MTT was aspirated and isopropanol was added to dissolve any formazen crystals that formed. Plates were "read" on an Elisa reader at 570 nm (principal wavelength) and again at 650 wavelength (reference wavelength) to correct for non-specific background absorbance, using a Thermomax Spectrophotometer (Molecular Devices). […]

MRC-5 cells; AB1 cells = assay: activity of second-stage fractions and of the separated isomers (FIG. 1; test not stated); format: cell-based; conditions: Curacin A vs Curacin B
Procedure: Elution in the second stage was performed within a much smaller range of increasingly greater amounts of ethyl acetate in hexane (1 to 5% in 0.5 to 1.0% increments). […] Fractions 5-9 were pooled and, as such, represented about 200 mg total.
Since the Curacin A and Curacin B compounds were […] to CH2 N2, methylation offered a way to purify the compound from the contaminants in the extract. After reaction of the extract with CH2 N2, the extract was subjected to high performance liquid chromatography (HPLC) in an effort to separate the two isomers. […]
Evaluation of the antiproliferative activity of fractions using MRC-5 cells in culture was performed using the following procedure: Human embryonic lung (MRC-5) cells were obtained from the American Type Culture Collection. […] As in the AB1 cell assay, cell growth and survival was determined calorimetrically, based upon the uptake and reduction of the tetrazolium salt, MTT, to a blue-colored formazan product by mitochondrial enzymes of living cells. The effect of the fractions, as potential inhibitors at different stages of the cell cycle, was determined by performing the assay using both resting and rapidly dividing cells. […]

brine shrimp = format: in vivo; conditions: see Example 1
Procedure: In this Example, various concentrations of the organic extract of Lyngbya majuscula were tested using a brine-shrimp assay. The assay was performed according to the following procedure: 24 hours before performing the assay, brine shrimp eggs were hatched in sea water (made by dissolving INSTANT OCEAN dry concentrate in water according to manufacturer's directions). A volume of the organic extract of Lyngbya majuscula was placed in a 50-mL conical flask (weighed beforehand to obtain the tare weight) and the solvent was evaporated. The flask was re-weighed and the tare weight subtracted to yield the weight of non-volatile residue from the extract. The residue was dissolved with a suitable volume of ethanol to yield a concentration of 0.1 mg residue per μL ethanol. Four vials were prepared, the first containing 50 μL of the ethanol solution, the second containing 10 μL of the ethanol solution plus 40 μL ethanol, the third containing 2.5 μL of the ethanol solution plus 47.5 μL ethanol, and the fourth containing none of the solution and 50 μL ethanol (serving as a negative control). Between 10 and 15 live brine shrimp were placed in each vial and stored for 24 hours, after which the number of live and dead shrimp were tallied for each vial. […]

Compound | cytotoxicity [1] | bioavailability (proliferating cells) | effectiveness in vivo against proliferating cells (proliferating cells) | effect against spleen lymphocytes (spleen lymphocytes) | activity against proliferating versus quiescent cells (MRC-5 cells) | mode of action indicated by COMPARE analysis ([1]; COMPARE data, Tables 1 and 2) | antiproliferative activity against living cells in culture ([1]; living cells in culture) | antimitotic activity ([1]; various tests) | activity of Curacin A relative to Curacin B (times more active) (MRC-5 cells; AB1 cells) | effectiveness for reducing a population of representative arthropods (brine shrimp) (brine shrimp)
C=CC[C@@H](CC/C(C)=C/C=C\CC/C=C\[C@@H]1CSC([C@@H]2C[C@@H]2C)=N1)OC [Curacin B] | cytotoxic | bioavailable | effective in vivo against proliferating cells | substantial effect against spleen lymphocytes | more active against proliferating cells than against quiescent cells | – | – | – | – | –
C=CC[C@@H](CC/C(C)=C/C=C/CC/C=C\[C@@H]1CSC([C@@H]2C[C@@H]2C)=N1)OC [Curacin A] | cytotoxic | bioavailable | effective in vivo against proliferating cells | substantial effect against spleen lymphocytes | more active against proliferating cells than against quiescent cells | functions as an antimitotic | substantial antiproliferative activity | substantial antimitotic activity | about 10^2 | effectiveness

From patent publication US5324739A (priority 1993, dated 1994)
